For one data set, the system named is Candida lipolytic. The data set can be described thus: minimal inhibitory concentration, proliferating fungi. The data set is classed as cell-based. From the text:
(§1) As a medium Saboroud medium was employed.

For a further data set, the system named is Candida vini. The data set is described as above. Type of data set: cell-based. Particulars: Kregervanrija fluxuum.
Excerpt: as §1

For another data set, the system named is Candida pseudotropic. The description is as above. The data set is classed as cell-based.
Excerpt: as §1

The subject of the next data set is Candida guilliermondii. The data set is described as above. Type of data set: cell-based. The settings on record: Meyerozyma guilliermondii.
Excerpt: as §1

A further data set deals with Candida parapsilosis. Described as above. The data set is classed as cell-based. The settings on record: Lodderomyces parapsilosis.
Excerpt: as §1

Another data set concerns Candida benhamii. The data set is described as above. The data set is classed as cell-based.
Excerpt: as §1

The test system of another data set is Candida valida. The data set is described as above. Type of data set: cell-based. Particulars: Pichia membranifaciens.
Excerpt: as §1

A short description of another data set: LD50, intraperitoneal. Particulars: mouse, in vivo, ip, intraperitoneally. From the text:
LD50 of N-pheny-3-cyclohexyl-sulfonyl-pyrrolidine-2,3-dione when applied intraperitoneally

Drawing on patent publication US4364958A, “1-Substituted-3-cycloalkyl-sulfonyl-pyrrolidine-2,5-dione derivatives and fungicidal compositions thereof” (Chinoin Gyogyszer es Vegyeszeti Termekek Gyara Rt., priority 1979, dated 1982), this text covers MIC and LD50 for two molecules.

The structures appear in SMILES notation. In brackets after ≈: the same amount, converted by molar mass.

Regarding `Cc1ccc(N2C(=O)CC(S(=O)(=O)C3CCCCC3)C2=O)cc1` (stereo not shown), the minimal inhibitory concentration (MIC) in the data set on Candida lipolytic (24 hours) was 5 µg/mL (≈ 14.9 µM); in the data set with Candida lipolytic (48 hours), 10 µg/mL (≈ 29.8 µM); against Candida vini (24 hours), 1 µg/mL (≈ 2.98 µM); against Candida vini (48 hours), 5 µg/mL (≈ 14.9 µM); against Candida pseudotropic (24 hours) it was 2.5 µg/mL (≈ 7.45 µM); in the data set with Candida pseudotropic (48 hours), 10 µg/mL (≈ 29.8 µM). In addition, the MIC against Candida guilliermondii (24 hours) stood at 5 µg/mL (≈ 14.9 µM); against Candida guilliermondii (48 hours) it was 10 µg/mL (≈ 29.8 µM); in the data set with Candida parapsilosis (24 hours), 10 µg/mL (≈ 29.8 µM); with Candida parapsilosis (48 hours), 50 µg/mL (≈ 149 µM); in the data set with Candida benhamii (24 hours), 25 µg/mL (≈ 74.5 µM); against Candida benhamii (48 hours), 75 µg/mL (≈ 224 µM). For the same molecule, the minimal inhibitory concentration (MIC) in the data set with Candida valida (24 hours) is 5 µg/mL (≈ 14.9 µM); against Candida valida (48 hours), 10 µg/mL (≈ 29.8 µM).
With `O=C1CC(S(=O)(=O)C2CCCCC2)C(=O)N1c1ccccc1` (stereo not shown) [1-Phenyl-3-cyclohexyl-sulfonyl-pyrrolidine-2,5-dione], the LD50 was 382 mg/kg in the data set “LD50, intraperitoneal” (female mice) and 461 mg/kg in the data set “LD50, intraperitoneal” (male mice).

As usually defined, the MIC is the lowest concentration found to suppress growth. Low readings indicate inhibition by little substance, high ones a need for much substance. In general, LD50 refers to the dose expected to kill half of the subjects tested. Low readings indicate greater toxicity, high ones lower toxicity.
